The record followed here is US10071035B2, “Use of benzyl alcohol as a defoaming agent” (Colgate-Palmolive Company, priority 2014, dated 2018).

Experiment [1] is described as follows: Defoaming of foam generated from aqueous 0.2% sodium lauryl sulfate solution in measuring cylinders. It counts as physicochemical. The note with it: three minutes after addition of 1 mL aliquot of defoaming agent to 0.2% SLS foam. On the procedure: Three aqueous solutions of 0.2% sodium lauryl sulfate were prepared in 250 mL measuring cylinders by diluting 5 g of a 2% sodium lauryl sulfate stock solution with water to give a total volume of 50 mL. The solutions were agitated by swirling the measuring cylinders 12 times to generate foam. The volumes of foam generated were recorded. A 1 mL aliquot of defoaming agent was then added to each of the solutions at a rate of 0.01 mL/s. The defoaming agents investigated were benzyl alcohol, methanol, and water. Three minutes after the addition of the defoaming agent, the volumes of foam present in each vessel were recorded.

Experiment [2] is described as follows: Time taken to defoam (batch to settle) under vacuum during manufacture of oral care composition. The following applies: composition B (0.3% benzyl alcohol) versus comparative composition A, 4 kg batch.
Experimental: The compositions were manufactured as follows: • 1. The sorbitol was added to an SS vessel having a stirrer. The stirrer was started. The sorbitol was heated to 60-62° C. • 2. Half of the purified water was added to the SS vessel. • 3. The copolymer of methyl vinyl ether and maleic acid was added to the SS vessel and mixed. Mixing was continued until the copolymer of methyl vinyl ether and maleic acid was fully dispersed. • 4. The NaOH (50% solution) was added to the SS vessel and mixed for 5 minutes. • 5. The remaining purified water was added to the SS vessel. • 6. […] The pre-mix was added to the SS vessel. • 7. The resulting gel was mixed for 20 minutes at a temperature of 64-67° C. • 8. The gel was transferred to a mixer. The thickener silica was added to the mixer and mixed for 5 minutes. The mixer used in the present experiment was an Alpro mixer. • 9. The abrasive silica and titanium dioxide were added to the mixer and mixed under vacuum. Mixing was continued until the temperature reached 46° C. • 10. At 46° C., the flavor, triclosan and sodium lauryl sulfate granules were added to the mixture. If used, benzyl alcohol was also added at this stage. • 11. The resulting mixture was then stirred for 2 minutes. Vacuum was then applied. The time taken for the batch to settle was observed. • 12. After allowing the batch to settle, mixing was continued for a further 8 minutes. […]

As for `CO` [Methanol, methanol, reference compound], the “% reduction in foam after addition of defoaming agent” value in experiment [1] is reported as 74.5%.

Turning to `OCc1ccccc1` [Benzyl alcohol, benzyl alcohol], the results for the “reduction of the defoaming time” value in experiment [2] and in experiment [2] (listed as benzyl alcohol) were 50% and “about 50%”, respectively. In experiment [1], the “% reduction in foam after addition of defoaming agent” value was determined as 59.1%.
